Earlier results as cited in patent US7682606B2, “Methods of producing edible fungi containing activated folates and nutritional supplements containing activated folates” (Jarrow Formulas, Inc., priority 2003, dated 2010).

What was measured:
homocysteine = conditions: human
[1] = animal

Row | SMILES | Reducing homocysteine, compared with racemic D,L mixtures (homocysteine) | Intestinal absorption after oral administration [1]
1 | CN1c2c(nc(N)[nH]c2=O)NCC1CNc1ccc(C(=O)N[C@@H](CCC(=O)O)C(=O)O)cc1 (single isomer, unassigned) [L-isomer of 5-MTHF, 5-methyltetrahydrofolate] | superior to racemic mixtures | 
2 | CN1c2c(nc(N)[nH]c2=O)NCC1CNc1ccc(C(=O)N[C@@H](CCC(=O)O)C(=O)O)cc1 (some centres unmarked) [5-MTHF, 5-methyltetrahydrofolate] |  | readily absorbed from the intestinal tract without degradation
